Measurements published in PMC8508980, “Design, Synthesis and Anticancer Profile of New 4-(1H-benzo[d]imidazol-1-yl)pyrimidin-2-amine-Linked Sulfonamide Derivatives with V600EBRAF Inhibitory Effect” (International Journal of Molecular Sciences, 2021).

Legend:
Format in all cases: cell-based
[1] = tested on: HCC-2998; assay: NCI 60 cell line screen; details: Homo sapiens; HCC-2998, Colon Cancer; read-out: Percent growth
Protocol: (§1) Anticancer profiling over a panel of 60 cancer cell lines was carried out at the National Cancer Institute (NCI), Bethesda, Maryland, USA, https://dtp.cancer.gov/discovery_development/nci-60/methodology.htm (Last visit 22 September 2021), using the standard procedure (detailed procedure is located in the Supplementary Information page 50 s).
(§2) NCI standard procedure for 60 cell lines assay
(§3) The human tumor cell lines of the cancer screening panel are grown in RPMI 1640 mediu m containing 5% fetal bovine serum and 2 mM L-glutamine. For a typical screening experiment, cells are inoculated into 96 well microtiter plates in 100 μL at plating densities ranging from 5,000 to 40,000 cells/well depending on the doubling time of individual cell lines. After cell inoculation, the microtiter plates are incubated at 37° C, 5 % CO2, 95 % air and 100 % relative humidity for 24 h prior to addition of experimental drugs.
(§4) After 24 h, two plates of each cell line are fixed in situ with TCA, to represent a measurement of the cell population for each cell line at the time of drug addition (Tz). Experimental drugs are solubilized in dimethyl sulfoxide at 400-fold the desired final maximum test concentration (10 µM) and stored frozen prior to use. At the time of drug addition, an aliquot of frozen concentrate is thawed and diluted to twice the desired final maximum test concentration with co mp lete medium containing 50 μg/ml gentamicin. Additional four, 10-fold or ½ log serial dilutions are made to provide a total of five drug concentrations plus control. Aliquots of 100 μl of these different drug dilutions are added to the appropriate microtiter wells already containing 100 μl of medium, resulting in the required final drug concentrations.
(§5) Following drug addition, the plates are incubated for an additional 48 h at 37°C, 5 % CO2, 95 % air, and 100 % relative humidity. For adherent cells, the assay is terminated by the addition of cold TCA. Cells are fixed in situ by the gentle addition of 50 μl of cold 50 % (w/v) TCA (final concentration, 10 % TCA) and incubated for 60 minutes at 4°C. The supernatant is discarded, and the plates are washed five times with tap water and air dried. Sulforhodamine B (SRB) solution (100 μl) at 0.4 % (w/v) in 1 % acetic acid is added to each well, and plates are incubated for 10 minutes at room temperature. After staining, unbound dye is removed by washing five times with 1 % acetic acid and the plates are air dried. Bound stain is subsequently solubilized with 10 mM trizma base, and the absorbance is read on an automated plate reader at a wavelength of 515 nm. For suspension cells, the methodology is the same except that the assay is terminated by fixing settled cells at the bottom of the wells by g ently adding 50 μl of 80 % TCA (final concentration, 16 % TCA). Using the seven absorbance measurements [time zero, (Tz), control growth, (C), and test growth in the presence of drug at the five concentration levels (Ti)], the percentage growth is calculated at each of the drug concentrations levels. Percentage growth inhibition is calculated as:
(§6) [(Ti-Tz)/(C-Tz)] x 100 for concentrations for which Ti>/=Tz
(§7) [(Ti-Tz)/Tz] x 100 for concentrations for which Ti<Tz.
(§8) Three dose response parameters are calculated for each experimental agent. Growth inhibition of […]
(§9) resulting in a 50% reduction in the net protein increase (as measured by SRB staining) in control cells during the drug incubation. The drug concentration resulting in total growth inhibition […]
(§10) (TGI) is calculated from Ti = Tz.

[2] = tested on: MDA-MB-435; assay: NCI 60 cell line screen; details: Homo sapiens; MDA-MB-435, Melanoma; read-out: Percent growth
Protocol: as §1, §2, §3, §4, §5, §6, §7, §8, §9, §10

[3] = tested on: LOX IMVI; assay: NCI 60 cell line screen; details: Homo sapiens, Melanoma, read-out: Percent growth
Protocol: as §1, §2, §3, §4, §5, §6, §7, §8, §9, §10

[4] = tested on: COLO 205; assay: NCI 60 cell line screen; details: Homo sapiens; COLO 205, Colon Cancer; read-out: Percent growth
Protocol: as §1, §2, §3, §4, §5, §6, §7, §8, §9, §10

[5] = tested on: HL-60(TB); assay: NCI 60 cell line screen; details: Homo sapiens, Leukemia, read-out: Percent growth
Protocol: as §1, §2, §3, §4, §5, §6, §7, §8, §9, §10

[6] = tested on: ACHN; assay: NCI 60 cell line screen; details: Homo sapiens, Renal Cancer, read-out: Percent growth
Protocol: as §1, §2, §3, §4, §5, §6, §7, §8, §9, §10

[7] = tested on: CCRF-CEM; assay: NCI 60 cell line screen; details: Homo sapiens, Leukemia, read-out: Percent growth
Protocol: as §1, §2, §3, §4, §5, §6, §7, §8, §9, §10

[8] = tested on: SW-620; assay: NCI 60 cell line screen; details: Homo sapiens; SW-620, Colon Cancer; read-out: Percent growth
Protocol: as §1, §2, §3, §4, §5, §6, §7, §8, §9, §10

[9] = tested on: SK-MEL-28; assay: NCI 60 cell line screen; details: Homo sapiens; SK-MEL-28, Melanoma; read-out: Percent growth
Protocol: as §1, §2, §3, §4, §5, §6, §7, §8, §9, §10

[10] = tested on: BT-549; assay: NCI 60 cell line screen; details: Homo sapiens; BT-549, Breast Cancer; read-out: Percent growth
Protocol: as §1, §2, §3, §4, §5, §6, §7, §8, §9, §10

[11] = tested on: A549/ATCC; assay: NCI 60 cell line screen; details: Homo sapiens, Non-Small Cell Lung Cancer, read-out: Percent growth
Protocol: as §1, §2, §3, §4, §5, §6, §7, §8, §9, §10

[12] = tested on: HOP-62; assay: NCI 60 cell line screen; details: Homo sapiens; HOP-62, Non-Small Cell Lung Cancer; read-out: Percent growth
Protocol: as §1, §2, §3, §4, §5, §6, §7, §8, §9, §10

[13] = tested on: MALME-3M; assay: NCI 60 cell line screen; details: Homo sapiens, Melanoma, read-out: Percent growth
Protocol: as §1, §2, §3, §4, §5, §6, §7, §8, §9, §10

[14] = tested on: A375 cells; assay: Antiproliferative MTT assay; details: Homo sapiens, A-375, 48 h, mean ± S.D. of two experiments
Protocol: (§11) The effect of final target compounds over A375 and SK-MEL-5 was performed using reported procedures (detailed procedure is located in the Supplementary Information page 51s). […]
(§12) Evaluation of the Antiproliferative Activity Against A375 and SK-MEL-5
(§13) A375 and SK-MEL-5 cells were purchased from American Type Culture Collection (ATCC, Ro ckv ille, MD, USA) and maintained in Dulbecco’s modified eagle medium (DMEM, Welgene, Daegu, Republic of Korea) supplemented with 10% fetal bovine serum (FBS, Welgene, Daegu, Republic of Korea) and 1% penicillin/streptomycin (Welgene, Daegu, Republic of Korea) in a hu midified atmo sphere with 5% CO2 at 37 °C. Both cells were taken from culture substrate with 0.05% trypsin-0.02% EDTA and plated at a density of 5 × 10^3 cells/well in 96 well plates and then incubated at 37 °C fo r 24 h in a hu midified atmo sphere with 5% CO2 prior to treatment with various concentrations (3-fold serial dilution, 12 points) of the tested compounds. The cells were incubated for 48 h after treatment with the test compounds. The cell viability was assessed by the conventional 3-(4,5-dimethylthiazol-2-yl)-2,5-diphenyltetrazolium bromide (MTT) reduction assay. MTT assays were carried out with CellTiter 96® (Promega) according to the manufacturer’s instructions. The absorbance at 590 nm was recorded using EnVision 2103 (Perkin Elmer; Bo ston , MA, USA). The IC50 values were calculated using GraphPad Prism 4.0

[15] = tested on: SK-MEL-5 cells; assay: Antiproliferative MTT assay; details: Homo sapiens, 48 h, mean ± S.D. of two experiments
Protocol: as §11, §12, §13

Structure (SMILES) | activity at 10 µM [1] | activity at 10 µM [2] | activity at 10 µM [3] | activity at 10 µM [4] | activity at 10 µM [5] | activity at 10 µM [6] | activity at 10 µM [7] | activity at 10 µM [8] | activity at 10 µM [9] | activity at 10 µM [10] | activity at 10 µM [11] | activity at 10 µM [12] | activity at 10 µM [13] | IC50 [14] | IC50 [15]
O=S(=O)(NCCNc1nccc(-n2cnc3ccccc32)n1)c1ccc(C(F)(F)F)cc1 [12e, N-(2-((4-(1H-benzo [d]imidazol-1-yl)pyrimidin-2-yl)amino)ethyl)-4-(trifluoromethyl)benzenesulfonamide] | 80.5% | 64.4% | 57.4% | 64.9% | 73.8% | 60.8% | 57.6% | 83.5% | 77.2% | 53.1% | 55.4% | 66.1% | 71.4% | 2.89 ± 0.14 µM | 6.54 ± 0.18 µM
O=S(=O)(NCCNc1nccc(-n2cnc3ccccc32)n1)c1ccc(F)cc1 [12b, N-(2-((4-(1H-benzo [d]imidazol-1-yl)pyrimidin-2-yl)amino)ethyl)-4-fluorobenzenesulfonamide] | 104% | 97.7% | 93.2% | 102% | 106% | 88.3% | 93.5% | 100% | 101% | 82.2% | 91.3% | 90.9% | 93.7% | 10.5 ± 0.22 µM | 15.6 ± 0.37 µM
O=S(=O)(NCCCNc1nccc(-n2cnc3ccccc32)n1)c1ccc(Br)cc1 [12k, N-(3-((4-(1H-benzo [d]imidazol-1-yl)pyrimidin-2-yl)amino)propyl)-4-bromo benzenesulfonamide] | 112% | 92.6% | 94.6% | 108% | 99.8% | 90.4% | 83% | 106% | 102% | 80.8% | 95% | 107% | 104% | 12 ± 0.47 µM | 13.5 ± 0.39 µM
O=S(=O)(NCCNc1nccc(-n2cnc3ccccc32)n1)c1ccc(Cl)cc1 [12c, N-(2-((4-(1H-benzo [d]imidazol-1-yl)pyrimidin-2-yl)amino)ethyl)-4-chlorobenzenesulfonamide] | 101% | 100% | 93.5% | 104% | 113% | 96.4% | 103% | 100% | 101% | 99.3% | 103% | 95.4% | 99.5% | 11 ± 0.36 µM | 17.6 ± 0.49 µM
COc1ccc(S(=O)(=O)NCCNc2nccc(-n3cnc4ccccc43)n2)cc1 [12f, N-(2-((4-(1H-benzo [d]imidazol-1-yl)pyrimidin-2-yl)amino)ethyl)-4-methoxy benzenesulfonamide] | 99.7% | 96.6% | 91.7% | 99.8% | 106% | 97.1% | 102% | 103% | 97.9% | 97.8% | 94.6% | 94.6% | 91.7% | 12.6 ± 0.44 µM | 18.7 ± 0.69 µM
O=S(=O)(NCCNc1nccc(-n2cnc3ccccc32)n1)c1ccccc1 [12a, N-(2-((4-(1H-benzo [d]imidazol-1-yl)pyrimidin-2-yl)amino)ethyl)benzenesulfonamide] | 106% | 109% | 95% | 101% | 113% | 94.2% | 96% | 112% | 108% | 106% | 104% | 90.7% | 101% | 12.8 ± 0.41 µM | 20.4 ± 0.86 µM
